BindingDB's records for patent US20240425499 (Halia Therapeutics, 2024)
pIC50: −log10 of the molar value.

biological target: T1, Tyrosine-protein kinase receptor TYRO3 (Homo sapiens, UniProt Q06418); test: TYRO3 Enzymatic Assay
T1 sequence (Q06418 whole entry): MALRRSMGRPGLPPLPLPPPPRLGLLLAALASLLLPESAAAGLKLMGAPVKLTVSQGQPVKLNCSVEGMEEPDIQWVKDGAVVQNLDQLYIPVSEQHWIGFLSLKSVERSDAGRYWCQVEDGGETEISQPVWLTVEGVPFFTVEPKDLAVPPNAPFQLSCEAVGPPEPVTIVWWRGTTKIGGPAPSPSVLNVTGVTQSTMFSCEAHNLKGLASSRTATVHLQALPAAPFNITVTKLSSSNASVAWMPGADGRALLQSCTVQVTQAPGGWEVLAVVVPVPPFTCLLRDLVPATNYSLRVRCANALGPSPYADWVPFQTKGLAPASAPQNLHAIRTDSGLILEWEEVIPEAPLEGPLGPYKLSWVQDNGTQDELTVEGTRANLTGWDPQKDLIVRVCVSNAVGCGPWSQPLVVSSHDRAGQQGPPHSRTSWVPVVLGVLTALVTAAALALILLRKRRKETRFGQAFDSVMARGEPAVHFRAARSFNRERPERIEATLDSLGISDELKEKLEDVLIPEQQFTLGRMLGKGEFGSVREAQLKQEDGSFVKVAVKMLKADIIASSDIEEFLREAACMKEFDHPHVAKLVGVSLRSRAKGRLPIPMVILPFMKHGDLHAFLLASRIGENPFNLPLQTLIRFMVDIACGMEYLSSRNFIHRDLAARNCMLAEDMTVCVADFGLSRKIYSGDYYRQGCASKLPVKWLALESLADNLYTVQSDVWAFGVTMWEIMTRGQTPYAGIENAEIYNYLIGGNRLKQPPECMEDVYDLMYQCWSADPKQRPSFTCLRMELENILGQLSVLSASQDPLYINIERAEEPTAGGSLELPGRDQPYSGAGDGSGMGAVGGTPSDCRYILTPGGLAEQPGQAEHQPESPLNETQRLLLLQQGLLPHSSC
Procedure: Poly(Glu, Tyr) sodium salt (Glu:Tyr (4:1), quality level 200, molecular weight 5,000-20,000, obtained from Sigma Aldrich, catalogue #P7244, assay concentration 0.20 mg/mL) and recombinant human TYRO3 (obtained from ThermoFisher Scientific, catalogue #PV3828, assay concentration 2 nM) were mixed in assay buffer (20 mM Hepes pH 7.5, 10 mM MgCl2, 1 mM EGTA, 0.02% Brij35, 0.02 mg/ml BSA, 0.1 mM Na3VO4, 2 mM DTT, 1% DMSO, with added MnCl2 at a final concentration of 2 mM). Compounds of interest (in DMSO, serial 3-fold dilution from 10 μM to 0.5 nM) or control (1% DMSO) were dispensed into the kinase reaction mixture by Acoustic technology (Echo550; nanoliter range). After incubation at room temperature for 20 minutes, the kinase reaction was initiated by addition of [32P]-ATP (Specific activity 10 μCi/μl) and the mixture was incubated at room temperature for 2 hours. The reaction was then stopped by spotting the reaction mixture on strips of phosphocellulose P81 paper. Following washing, the radioactivity of the P81 paper was measured and kinase activity data were expressed as the percent remaining kinase activity in test samples compared to vehicle (dimethyl sulfoxide) reactions.

OC1CCCN(Cc2ccc(-c3cnc4[nH]cc(-c5cccc(C(F)F)c5)c4c3)cc2)C1 (stereo unspecified) [US20240425499, Compound 9] and OC1CCCN(Cc2ccc(-c3cnc4[nH]cc(-c5cccc(F)c5)c4c3)cc2)C1 (stereo unspecified) [US20240425499, Compound 4] cannot be ordered by pIC50: over 7.29 for the first, over 7.29 for the second.

COc1ccc(-c2c[nH]c3ncc(-c4ccc(CN5CC(CO)CC(F)(F)C5)cc4)cc23)cn1 (stereo unspecified) [US20240425499, Compound 33] and COc1ccc(-c2c[nH]c3ncc(-c4ccc(CN5CC(O)CC(F)(F)C5)cc4)cc23)cn1 (stereo unspecified) [US20240425499, Compound 31] cannot be ordered by pIC50: under 6.30 for the first, under 6.30 for the second.

N#Cc1ccc(-c2c[nH]c3ncc(-c4ccc(CN5CCCC(O)C5)cc4)cc23)cc1 (stereo unspecified) [US20240425499, Compound 14] and Oc1ccc(-c2c[nH]c3ncc(-c4ccc(CN5CCCC(O)C5)cc4)cc23)cc1 (stereo unspecified) [US20240425499, Compound 16] cannot be ordered by pIC50: over 7.29 for the first, over 7.29 for the second.

CCc1[nH]c2ncc(-c3ccc(CN4CCCC(O)C4)cc3)cc2c1-c1ccnc(C(F)F)c1 (stereo unspecified) [US20240425499, Compound 61] and COCc1[nH]c2ncc(-c3ccc(CN4CCCC(O)C4)cc3)cc2c1-c1ccnc(C(F)F)c1 (stereo unspecified) [US20240425499, Compound 66] cannot be ordered by pIC50: over 7.29 for the first, over 7.29 for the second.

First: COc1ccc(-c2c[nH]c3ncc(-c4ccc(CN5CCCC(F)(F)C5)cc4)cc23)cn1 [US20240425499, Compound 41]
Second: OC1CCCN(Cc2ccc(-c3cnc4[nH]cc(-c5ccc(C(F)F)nc5)c4c3)cc2)C1 (stereo unspecified) [US20240425499, Compound 23]
The pIC50 of the first is lower: under 6.30 for the first, over 7.29 for the second.

OCc1ccc(-c2c[nH]c3ncc(-c4ccc(CN5CCCC(O)C5)cc4)cc23)cc1 (stereo unspecified) [US20240425499, Compound 83] and CN(C)Cc1ccc(-c2c[nH]c3ncc(-c4ccc(CN5CCCC(O)C5)cc4)cc23)cc1 (stereo unspecified) [US20240425499, Compound 17] cannot be ordered by pIC50: over 7.29 for the first, over 7.29 for the second.

OC1CN(Cc2ccc(-c3cnc4[nH]cc(-c5ccc6[nH]ccc6c5)c4c3)cc2)C1 [US20240425499, Compound 44] and COC1CN(Cc2ccc(-c3cnc4[nH]cc(-c5ccc6[nH]ccc6c5)c4c3)cc2)C1 [US20240425499, Compound 46] cannot be ordered by pIC50: over 7.29 for the first, over 7.29 for the second.

First: OC1CCCN(Cc2ccc(-c3cnc4[nH]cc(-c5cc(F)cc(F)c5)c4c3)cc2)C1 (stereo unspecified) [US20240425499, Compound 12]
Second: OC1CCCN(Cc2ccc(-c3cnc4[nH]cc(-c5cc(F)cc(C(F)(F)F)c5)c4c3)cc2)C1 (stereo unspecified) [US20240425499, Compound 13]
The pIC50 of the first is higher: over 7.29 for the first, under 6.30 for the second. The first is the more potent here.

CCc1[nH]c2ncc(-c3ccc(CN4CCCC(O)C4)cc3)cc2c1-c1ccc(OC)nc1 (stereo unspecified) [US20240425499, Compound 59] and COc1ccc(-c2c(Cl)[nH]c3ncc(-c4ccc(CN5CCCC(O)C5)cc4)cc23)cn1 (stereo unspecified) [US20240425499, Compound 56] cannot be ordered by pIC50: over 7.29 for the first, over 7.29 for the second.

COCc1[nH]c2ncc(-c3ccc(CN4CCCC(O)C4)cc3)cc2c1-c1ccnc(F)c1 (stereo unspecified) [US20240425499, Compound 65] and CCc1[nH]c2ncc(-c3ccc(CN4CCCC(O)C4)cc3)cc2c1-c1ccnc(F)c1 (stereo unspecified) [US20240425499, Compound 60] cannot be ordered by pIC50: over 7.29 for the first, over 7.29 for the second.

N#Cc1cccc(-c2c[nH]c3ncc(-c4ccc(CN5CCCC(O)C5)cc4)cc23)c1 (stereo unspecified) [US20240425499, Compound 15] and Cc1cccc(-c2c[nH]c3ncc(-c4ccc(CN5CCCC(O)C5)cc4)cc23)c1 (stereo unspecified) [US20240425499, Compound 2] cannot be ordered by pIC50: over 7.29 for the first, over 7.29 for the second.

CCOCc1[nH]c2ncc(-c3ccc(CN4CCCC(O)C4)cc3)cc2c1-c1cccc(F)c1 (stereo unspecified) [US20240425499, Compound 67] and COCc1[nH]c2ncc(-c3ccc(CN4CCCC(O)C4)cc3)cc2c1-c1cccc(F)c1 (stereo unspecified) [US20240425499, Compound 63] cannot be ordered by pIC50: over 7.29 for the first, over 7.29 for the second.

OC1CCCN(Cc2ccc(-c3cnc4[nH]cc(-c5ccc6ocnc6c5)c4c3)cc2)C1 (stereo unspecified) [US20240425499, Compound 50] and Cc1nc2cc(-c3c[nH]c4ncc(-c5ccc(CN6CCCC(O)C6)cc5)cc34)ccc2o1 (stereo unspecified) [US20240425499, Compound 51] cannot be ordered by pIC50: over 7.29 for the first, over 7.29 for the second.

OC1CCCN(Cc2ccc(-c3cnc4[nH]cc(-c5cc(F)c6ocnc6c5)c4c3)cc2)C1 (stereo unspecified) [US20240425499, Compound 52] and Cc1nc2cc(-c3c[nH]c4ncc(-c5ccc(CN6CCCC(O)C6)cc5)cc34)cnc2o1 (stereo unspecified) [US20240425499, Compound 84] cannot be ordered by pIC50: over 7.29 for the first, over 7.29 for the second.

OC1CCCN(Cc2ccc(-c3cnc4[nH]cc(-c5cccc6[nH]ncc56)c4c3)cc2)C1 (stereo unspecified) [US20240425499, Compound 49] and OC1CCCN(Cc2ccc(-c3cnc4[nH]cc(-c5ccc6cn[nH]c6c5)c4c3)cc2)C1 (stereo unspecified) [US20240425499, Compound 48] cannot be ordered by pIC50: over 7.29 for the first, over 7.29 for the second.

Compared with CN(C)Cc1[nH]c2ncc(-c3ccc(CN4CCCC(O)C4)cc3)cc2c1-c1cccc(F)c1 (stereo unspecified) [US20240425499, Compound 87], CCc1[nH]c2ncc(-c3ccc(CN4CCCC(O)C4)cc3)cc2c1-c1cccc(F)c1 (stereo unspecified) [US20240425499, Compound 57] is higher in pIC50: under 6.30 for the first, over 7.29 for the second. The second is the more potent here.

Compared with COc1ccc(-c2c[nH]c3ncc(-c4ccc(C(C)N5CCCC(O)C5)cc4)cc23)cn1 (stereo unspecified) [US20240425499, Compound 75], COc1ccc(-c2c[nH]c3ncc(-c4ccc(N5CCC(C)(O)CC5)cc4)cc23)cn1 [US20240425499, Compound 72] is lower in pIC50: over 7.29 for the first, under 6.30 for the second.

CCc1[nH]c2ncc(-c3ccc(CN4CCCC(O)C4)cc3)cc2c1-c1ccc(C(F)F)nc1 (stereo unspecified) [US20240425499, Compound 58] and OC1CCCN(Cc2ccc(-c3cnc4[nH]c(CC5CC5)c(-c5cccc(F)c5)c4c3)cc2)C1 (stereo unspecified) [US20240425499, Compound 90] cannot be ordered by pIC50: over 7.29 for the first, over 7.29 for the second.

OC1CCCN(Cc2ccc(-c3cnc4[nH]cc(-c5ccc6c(c5)CCNC6)c4c3)cc2)C1 (stereo unspecified) [US20240425499, Compound 80] and N#Cc1cc(-c2c[nH]c3ncc(-c4ccc(CN5CCCC(O)C5)cc4)cc23)ccc1O (stereo unspecified) [US20240425499, Compound 53] cannot be ordered by pIC50: over 7.29 for the first, over 7.29 for the second.

COc1ccc(-c2c[nH]c3ncc(-c4ccc(CN5CCCC(O)C5)cc4)cc23)cc1C#N (stereo unspecified) [US20240425499, Compound 18] and CC(C)(O)c1ccc(-c2c[nH]c3ncc(-c4ccc(CN5CCCC(O)C5)cc4)cc23)cc1 (stereo unspecified) [US20240425499, Compound 85] cannot be ordered by pIC50: over 7.29 for the first, over 7.29 for the second.

CC1(O)CCN(Cc2ccc(-c3cnc4[nH]cc(-c5ccc6[nH]ccc6c5)c4c3)cc2)CC1 [US20240425499, Compound 76] and OC1CCN(Cc2ccc(-c3cnc4[nH]cc(-c5ccc6[nH]ccc6c5)c4c3)cc2)CC1 [US20240425499, Compound 78] cannot be ordered by pIC50: over 7.29 for the first, over 7.29 for the second.

c1cc2cc(-c3c[nH]c4ncc(-c5ccc(CN6CCCCC6)cc5)cc34)ccc2[nH]1 [US20240425499, Compound 79] and COC1CCN(Cc2ccc(-c3cnc4[nH]cc(-c5ccc6[nH]ccc6c5)c4c3)cc2)CC1 [US20240425499, Compound 45] cannot be ordered by pIC50: over 7.29 for the first, over 7.29 for the second.

OC1CCCN(Cc2ccc(-c3cnc4[nH]cc(-c5cnc6[nH]ccc6c5)c4c3)cc2)C1 (stereo unspecified) [US20240425499, Compound 47] and OC1CCCN(Cc2ccc(-c3cnc4[nH]c(-c5ccoc5)c(-c5ccnc(F)c5)c4c3)cc2)C1 (stereo unspecified) [US20240425499, Compound 86] cannot be ordered by pIC50: over 7.29 for the first, over 7.29 for the second.
